Reference: patent US9790169B2, “IDO inhibitors” (BRISTOL-MYERS SQUIBB COMPANY, priority 2015, dated 2017)

Target: human IDO1 (Homo sapiens, UniProt P14902)
Assay: Assessment of human IDO-1 inhibitory activity in HEK cells (human IDO1/HEK293 cells, kynurenine read-out with Ehrlich reagent, absorbance 490 nm)
Format: cell-based
Design: expressed in transfected cells
Conditions: HEK Human IDO-1 cellular assay
Summary of the method: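 Kynurenine output from stably IDO1-transfected HEK293 cells (10,000/well, phenol red-free RPMI, 10% FBS) after 20 h compound exposure at 37 °C. The reaction was stopped with 0.2% TCA and heated 30 min at 50 °C, then the supernatant was mixed with Ehrlich reagent and read at 490 nm. IC50 was set against DMSO and a 500 nM reference standard as 0 and 100% inhibition.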

Sequence of human IDO1 (P14902 whole entry): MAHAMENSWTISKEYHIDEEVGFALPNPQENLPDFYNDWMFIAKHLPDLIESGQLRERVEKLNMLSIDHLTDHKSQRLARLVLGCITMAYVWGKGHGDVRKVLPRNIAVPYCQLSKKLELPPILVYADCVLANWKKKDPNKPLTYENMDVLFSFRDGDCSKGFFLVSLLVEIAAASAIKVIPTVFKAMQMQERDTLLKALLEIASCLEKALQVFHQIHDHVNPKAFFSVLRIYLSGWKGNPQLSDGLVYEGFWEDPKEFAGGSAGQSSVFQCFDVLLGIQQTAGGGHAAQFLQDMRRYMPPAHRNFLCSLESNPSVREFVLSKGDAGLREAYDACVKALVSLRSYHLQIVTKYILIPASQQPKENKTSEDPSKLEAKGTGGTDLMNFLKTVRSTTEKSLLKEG

Row | IC50 | SMILES
1 | < 50 nM | CCOc1ccc(NC(=O)Nc2cc(C(CC(=O)O)C3CC3)ccc2N(CC(C)C)C2CCOCC2)cc1 (racemic) [Example 1204, (+/−)-3-Cyclopropyl-3-(3-(3-(4-ethoxyphenyl)ureido)-4-(isobutyl(tetrahydro-2H-pyran-4-yl)amino)phenyl)propanoic acid]
2 | < 50 nM | CCC(CC(=O)O)c1ccc(N(CC(C)C)C2CCCCC2)c(Nc2ccc(Cl)cc2F)c1 (single isomer, unassigned) [Example 307, 3-(3-((4-chloro-2-fluorophenyl)amino)-4-(cyclohexyl(isobutyl)amino)phenyl)pentanoic acid]
3 | < 50 nM | CCN(c1ccc([C@@H](COC)CC(=O)O)cc1Nc1cnc(OC)nc1)C1CCOCC1 (single isomer, unassigned) [Example 350]
4 | < 5 nM | CC[C@H](CC(=O)O)c1ccc(N(CC2CC2)CC(C)(C)O)c(Nc2ccc(Cl)cc2)c1 (single isomer, unassigned) [Example 271]
5 | < 5 nM | CCC(CC(=O)O)c1ccc(N(CC)C2CCOCC2)c(NC(=O)Nc2ccc(OC)cc2F)c1 (racemic) [Example 608, 3-(4-(Ethyl(tetrahydro-2H-pyran-4-yl)amino)-3-(3-(2-fluoro-4-methoxyphenyl)ureido)phenyl)pentanoic acid]
6 | < 5 nM | CC(CC(=O)O)c1ccc(N(CC(C)(C)O)C2CCOCC2)c(Nc2ccc(Cl)cc2)c1 (single isomer, unassigned) [Example 195, 3-(3-((4-Chlorophenyl)amino)-4-((2-hydroxy-2-methylpropyl)(tetrahydro-2H-pyran-4-yl)amino)phenyl)butanoic acid]
7 | < 5 nM | CCCN(c1ccc([C@@H](CC)CC(=O)O)cc1Nc1cnc(OC)nc1)C1CCOCC1 (single isomer, unassigned) [Example 540]
8 | < 50 nM | CC[C@H](CC(=O)O)c1ccc(N(CC)C2CCOCC2)c(Nc2ccn3nc(C)c(F)c3c2)c1 (single isomer, unassigned) [Example 513]
9 | > 50 nM | CC(CC(=O)O)c1ccc(N2C[C@@H](C)O[C@@H](C)C2)c(Nc2ccc(Cl)cc2)c1 (single isomer, unassigned) [Example 739]
10 | < 50 nM | CCCN(c1ccc([C@@H](COC)CC(=O)O)cc1Nc1ccc2nc(C)sc2c1)C1CCOCC1 (single isomer, unassigned) [Example 560]
11 | < 5 nM | CCN(c1ccc(C(C)CC(=O)O)cc1Nc1ccc(F)cc1)C1CCOCC1 (single isomer, unassigned) [Example 615, 3-(4-(ethyl(tetrahydro-2H-pyran-4-yl)amino)-3-((4-fluorophenyl)amino)phenyl) butanoic acid]
12 | < 5 nM | CC[C@@H](CC(=O)O)c1ccc(N(CC)C2CCCCC2)c(Nc2ccc(Cl)cc2)c1 (single isomer, unassigned) [Example 279]
13 | < 5 nM | CCN(c1ccc([C@@H](COC)CC(=O)O)cc1Nc1ccc(F)cc1)C1CCOCC1 (single isomer, unassigned) [Example 375]
14 | < 50 nM | CCOc1ncc(Nc2cc([C@H](CC)CC(=O)NS(C)(=O)=O)ccc2N(CC)C2CCOCC2)cn1 [Example 1078, 3-(3-((2-Ethoxypyrimidin-5-yl)amino)-4-(ethyl(tetrahydro-2H-pyran-4-yl)amino)phenyl)-N-(methylsulfonyl)pentanamide]
15 | < 5 nM | CC[C@H](CC(=O)O)c1ccc(N(CC)C2CCOCC2)c(Nc2ccc(OCC3CC3)cc2)c1 (single isomer, unassigned) [Example 516]
16 | < 50 nM | CCOc1ccc(Nc2cc([C@H](CC)CC(=O)O)ccc2N(CC(C)(C)O)C2CCOCC2)c(F)c1 (single isomer, unassigned) [Example 206]
17 | > 50 nM | CCOc1ncc(Nc2cc(C(C)CC(=O)O)ccc2N(CC(C)(C)O)C2CCCCC2)cn1 (single isomer, unassigned) [Example 50, 3-(4-(cyclohexyl(2-hydroxy-2-methylpropyl)amino)-3-((2-ethoxypyrimidin-5-yl)amino)phenyl)butanoic acid]

Continued, compound first:

Row | SMILES | IC50
18 | CCOc1ncc(Nc2cc([C@@H](CC)CC(=O)O)ccc2N2CCOC[C@@H]2C(C)C)cn1 (single isomer, unassigned) [Example 79] | > 50 nM
19 | COCC(CC(=O)O)c1ccc(N(CC(C)C)C2CCCCC2)c(NC(=O)Nc2ccccc2F)c1 (racemic) [Example 983, (+/−)-3-(4-(Cyclohexyl(isobutyl)amino)-3-(3-(2-fluorophenyl)ureido)phenyl)-4-methoxybutanoic acid] | < 5 nM
20 | CCC(CC(=O)O)c1cc(NC(=O)Nc2cnc(OC)nc2)c(N(CC(C)C)CC(C)C)cc1F (single isomer, unassigned) [Example 1141, 3-(4-(Diisobutylamino)-2-fluoro-5-(3-(2-methoxypyrimidin-5-yl)ureido)phenyl)pentanoic acid] | < 5 nM
21 | CCc1cnc(Nc2cc([C@H](CC)CC(=O)O)ccc2N(CC)C2CCCCC2)nc1 (single isomer, unassigned) [Example 286] | > 50 nM
22 | CC[C@H](CC(=O)O)c1ccc(N(CC(C)C)C2CCS(=O)(=O)CC2)c(NC(=O)Nc2cc(C)on2)c1 (single isomer, unassigned) [Example 213] | > 50 nM
23 | COC(Cc1ccc(N(CC(C)C)C2CCCCC2)c(NC(=O)Nc2ccc(C#N)cc2F)c1)C(=O)O (racemic) [Example 1011, 3-(3-(3-(4-Cyano-2-fluorophenyl)ureido)-4-(cyclohexyl(isobutyl)amino)phenyl)-2-methoxypropanoic acid] | < 50 nM
24 | Cc1ccc(CC(=O)Nc2cc(C(CC(=O)O)C(C)C)ccc2N(C)C(C)(C)C)cc1 (single isomer, unassigned) [1007-1] | > 50 nM
25 | CCCCc1ccc(NC(=O)Nc2cc(C(CC)CC(=O)O)cc(F)c2N(CC(C)C)CC(C)C)cc1 (racemic) [Example 973, (+/−)-3-(3-(3-(4-butylphenyl)ureido)-4-(diisobutylamino)-5-fluorophenyl)pentanoic acid] | < 50 nM
26 | CCC(CC(=O)O)c1ccc(N2CCC[C@H]2C(C)(C)O)c(Nc2ccc3c(c2)OC(F)(F)O3)c1 (single isomer, unassigned) [Example 837] | > 50 nM
27 | CCC(CC(=O)O)c1ccc(N(CC(C)C)C(C)C)c(Nc2ccc3nc(C)sc3c2)c1 (single isomer, unassigned) [Example 729, 3-(4-(isobutyl(isopropyl)amino)-3-((2-methylbenzo[d]thiazol-6-yl)amino)phenyl)pentanoic acid] | > 50 nM
28 | CC[C@H](CC(=O)O)c1ccc(N(CC(C)C)C2CCS(=O)(=O)CC2)c(Nc2ccc3sc(C)nc3c2)c1 [Example 214, 3-(4-((1,1-Dioxidotetrahydro-2H-thiopyran-4-yl)(isobutyl)amino)-3-((2-methylbenzo[d]thiazol-5-yl)amino)phenyl)pentanoic acid] | < 50 nM
29 | CCOc1ncc(Nc2cc(C(CC)CC(=O)O)ccc2N(CC2CC2)C(C)C)cn1 (single isomer, unassigned) [Example 718, 3-(4-((cyclopropylmethyl) (isopropyl)amino)-3-((2-ethoxypyrimidin-5-yl)amino)phenyl)pentanoic acid] | < 50 nM
30 | CC(C)C(CC(=O)O)c1ccc(N(C)C(C)(C)C)c(Nc2nc3ccccc3o2)c1 (single isomer, unassigned) [1008-1] | > 50 nM
31 | CCOc1ccc(NC(=O)Nc2cc(C(CC)CC(=O)O)c(F)cc2N(CC(C)C)C2CCCCC2)c(F)c1 (racemic) [Example 1116, (±)-3-(4-(Cyclohexyl(isobutyl)amino)-5-(3-(4-ethoxy-2-fluorophenyl)ureido)-2-fluorophenyl)pentanoic acid] | < 5 nM
32 | CC[C@H](CC(=O)O)c1ccc(N(CC(C)C)CC(C)C)c(Nc2ccc3nc(C)sc3c2)c1 (single isomer, unassigned) [Example 10] | > 50 nM
33 | COCC(CC(=O)O)c1ccc(N(CC(C)C)C2CCCCC2)c(NC(=O)Cc2cc(C)on2)c1 (single isomer, unassigned) [Example 1234, 3-(4-(Cyclohexyl(isobutyl)amino)-3-(2-(5-methylisoxazol-3-yl)acetamido)phenyl)-4-methoxybutanoic acid] | > 50 nM
34 | C[C@@H]1CN(c2ccc(C(C)(C)CC(=O)O)cc2Nc2ccc(F)cc2)C[C@H](C)O1 [Example 732, 3-(4-((2S,6R)-2,6-dimethylmorpholino)-3-((4-fluorophenyl)amino)phenyl)-3-methylbutanoic acid] | < 50 nM
35 | CCC(CC(=O)O)c1ccc(N(CC(C)C)C2CCCCC2)c(Nc2ccc3c(c2)OC(F)(F)O3)c1 (single isomer, unassigned) [Example 299, 3-(4-(Cyclohexyl(isobutyl)amino)-3-((2,2-difluorobenzo[d][1,3]dioxol-5-yl)amino)phenyl)pentanoic acid] | < 5 nM
36 | COCC(CC(=O)O)c1ccc(N(CC(C)C)CC(C)C)c(NC(=O)Nc2ccc(C)cc2)c1 (racemic) [Example 992, (+/−)-3-(4-(Diisobutylamino)-3-(3-(p-tolyl)ureido)phenyl)-4-methoxybutanoic acid] | < 50 nM
37 | COCC(CC(=O)O)c1ccc(N(CC(C)C)C2CCCCC2)c(NC(=O)Nc2ccc(Cl)cc2F)c1 (single isomer, unassigned) [985-1] | < 5 nM
38 | CC[C@H](CC(=O)O)c1ccc(N2C[C@@H](C)O[C@@H](C)C2)c(NC(=O)Nc2ccc(C)cc2)c1 (single isomer, unassigned) [Example 760] | > 50 nM
39 | CCC(CC(=O)O)c1ccc(N2CCC[C@H]2C(C)(C)O)c(Nc2ccc(Cl)cc2)c1 (single isomer, unassigned) [Example 836] | < 50 nM
40 | CCOc1ncc(Nc2cc(C(CC)CC(=O)O)ccc2N2CCOC[C@H]2C(C)C)cn1 (single isomer, unassigned) [Example 891] | > 50 nM
41 | CCC(CC(=O)O)c1ccc(N(CC(C)C)C2CCCCC2)c(NC(=O)C(F)(F)c2ccc(C)cc2)c1 (racemic) [Example 1075, 3-(4-(Cyclohexyl(isobutyl)amino)-3-(2,2-difluoro-2-(p-tolyl)acetamido)phenyl)pentanoic acid] | > 50 nM
